Legend:
Type in all cases: biochemical
JAK1 = JAK1 (Homo sapiens (Human), UniProt P23458); experiment: JAK1 LANCE Ultra kinase assay; conditions: for IC50: 38 uM ATP; for JAK2/JAK1: ratio of IC50 JAK2 to IC50 JAK1
Protocol: Inhibition test on activity of JAK kinase in vitro was carried out by the following methods.
JAK1 LANCE® Ultra assay, JAK2 LANCE® Ultra assay and JAK3 LANCE® Ultra assay were used to carry out the test separately, and kits of the above assays were supplied by PerkinElmer. […]
JAK1, JAK2 and JAK3 kinase, ATP and substrates were dissolved and diluted with buffers.
A test liquid was 2 nM Eu-W1024 anti-phosphotyrosine (PerkinElmer, AD0069). A stop buffer was 10 mM edetic acid (Intech, 1842C505).
2.5 μl of an 8-fold solution of the compound and 5 μl of a 4-fold solution of JAK1 or JAK2 or JAK3 kinase were added into a 384-well plate, respectively, and reacted for 10 minutes at room temperature. 2.5 μl of an 8-fold solution of ULight™-JAK-1 peptide/ATP was added and reacted for 90 minutes at room temperature. Finally, 5 μl of 4-fold edetic acid stop buffer and 5 μl of 4-fold test liquid of Eu-W1024 anti-phosphotyrosine were added and incubated for 60 minutes.
According to the formula: percentage of inhibition rate=(maximum value−transform value)/(maximum value−minimum value)×100, inhibition rate of each compound at various concentrations was calculated. The maximum value was the reference value of dimethyl sulfoxide added into the well plate, the minimum value was the blank value, and the transform value is the value obtained by the well of each compound. The IC50 values of the corresponding compounds were then obtained by fitting by using the XLFit fitting tool in excel.

JAK2 = JAK2 (Homo sapiens (Human), UniProt O60674); experiment: JAK2 LANCE Ultra kinase assay; conditions: 12 uM ATP
JAK3 = JAK3 (Homo sapiens (Human), UniProt P52333); experiment: JAK3 LANCE Ultra kinase assay; conditions: 4 uM ATP
Chain of JAK3 (P52333 whole entry): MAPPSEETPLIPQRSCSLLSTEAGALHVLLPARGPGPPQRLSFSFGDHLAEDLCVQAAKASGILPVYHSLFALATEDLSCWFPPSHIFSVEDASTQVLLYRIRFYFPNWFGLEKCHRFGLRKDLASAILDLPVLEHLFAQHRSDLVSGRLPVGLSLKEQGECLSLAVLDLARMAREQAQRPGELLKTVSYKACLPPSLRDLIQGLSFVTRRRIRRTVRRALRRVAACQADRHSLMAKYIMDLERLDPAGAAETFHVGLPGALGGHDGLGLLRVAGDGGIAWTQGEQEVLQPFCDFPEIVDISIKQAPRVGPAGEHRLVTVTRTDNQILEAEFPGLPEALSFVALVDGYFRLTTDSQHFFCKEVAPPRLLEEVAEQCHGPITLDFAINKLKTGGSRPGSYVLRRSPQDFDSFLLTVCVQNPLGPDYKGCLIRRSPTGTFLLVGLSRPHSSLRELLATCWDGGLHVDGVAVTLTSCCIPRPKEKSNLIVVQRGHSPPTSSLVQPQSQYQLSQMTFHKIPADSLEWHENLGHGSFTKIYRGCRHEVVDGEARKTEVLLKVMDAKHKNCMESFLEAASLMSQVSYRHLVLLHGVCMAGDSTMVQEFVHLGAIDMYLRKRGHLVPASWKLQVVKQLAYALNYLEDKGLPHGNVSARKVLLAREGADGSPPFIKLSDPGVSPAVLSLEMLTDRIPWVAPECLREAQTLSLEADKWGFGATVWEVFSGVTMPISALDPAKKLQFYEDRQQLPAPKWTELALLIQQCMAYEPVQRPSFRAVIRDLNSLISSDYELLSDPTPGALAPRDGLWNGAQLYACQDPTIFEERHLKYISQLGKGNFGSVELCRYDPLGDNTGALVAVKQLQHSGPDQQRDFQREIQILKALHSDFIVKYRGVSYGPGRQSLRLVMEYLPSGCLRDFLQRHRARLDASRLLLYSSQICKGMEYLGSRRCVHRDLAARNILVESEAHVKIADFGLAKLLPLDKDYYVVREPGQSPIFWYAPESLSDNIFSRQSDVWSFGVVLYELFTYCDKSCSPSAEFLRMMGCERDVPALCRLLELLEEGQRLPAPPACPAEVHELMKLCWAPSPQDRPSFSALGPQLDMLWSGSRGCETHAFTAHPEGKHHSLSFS

Chain of JAK1 (P23458 whole entry): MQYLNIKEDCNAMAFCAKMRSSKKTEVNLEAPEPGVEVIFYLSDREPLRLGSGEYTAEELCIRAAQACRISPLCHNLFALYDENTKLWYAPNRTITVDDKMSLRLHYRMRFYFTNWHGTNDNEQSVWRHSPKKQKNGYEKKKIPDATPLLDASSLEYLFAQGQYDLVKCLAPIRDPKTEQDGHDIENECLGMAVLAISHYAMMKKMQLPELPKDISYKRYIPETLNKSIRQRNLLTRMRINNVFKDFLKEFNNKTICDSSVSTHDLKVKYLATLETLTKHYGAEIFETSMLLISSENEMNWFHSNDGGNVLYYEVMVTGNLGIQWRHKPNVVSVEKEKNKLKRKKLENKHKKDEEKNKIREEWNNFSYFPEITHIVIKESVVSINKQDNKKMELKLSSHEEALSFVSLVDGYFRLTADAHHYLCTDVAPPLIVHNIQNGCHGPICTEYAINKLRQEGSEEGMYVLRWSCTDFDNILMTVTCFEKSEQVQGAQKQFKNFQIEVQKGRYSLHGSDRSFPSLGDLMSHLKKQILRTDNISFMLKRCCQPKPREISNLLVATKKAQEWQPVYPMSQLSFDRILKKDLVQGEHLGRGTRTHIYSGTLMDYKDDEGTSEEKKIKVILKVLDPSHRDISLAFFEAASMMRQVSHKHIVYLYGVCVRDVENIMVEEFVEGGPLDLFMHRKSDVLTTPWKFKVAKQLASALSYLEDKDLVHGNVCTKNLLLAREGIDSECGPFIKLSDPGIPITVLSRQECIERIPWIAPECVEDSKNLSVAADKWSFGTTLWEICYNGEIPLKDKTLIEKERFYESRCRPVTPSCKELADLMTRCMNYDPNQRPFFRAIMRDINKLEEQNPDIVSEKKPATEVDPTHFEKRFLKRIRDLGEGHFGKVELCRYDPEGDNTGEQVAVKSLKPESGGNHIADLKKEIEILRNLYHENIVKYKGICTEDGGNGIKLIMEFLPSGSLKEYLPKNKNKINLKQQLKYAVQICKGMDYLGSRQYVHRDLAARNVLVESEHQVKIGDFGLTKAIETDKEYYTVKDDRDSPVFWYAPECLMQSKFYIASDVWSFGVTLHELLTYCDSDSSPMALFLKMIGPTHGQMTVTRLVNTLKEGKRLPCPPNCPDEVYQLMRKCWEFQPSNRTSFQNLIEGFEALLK
Chain of JAK2 (O60674 whole entry): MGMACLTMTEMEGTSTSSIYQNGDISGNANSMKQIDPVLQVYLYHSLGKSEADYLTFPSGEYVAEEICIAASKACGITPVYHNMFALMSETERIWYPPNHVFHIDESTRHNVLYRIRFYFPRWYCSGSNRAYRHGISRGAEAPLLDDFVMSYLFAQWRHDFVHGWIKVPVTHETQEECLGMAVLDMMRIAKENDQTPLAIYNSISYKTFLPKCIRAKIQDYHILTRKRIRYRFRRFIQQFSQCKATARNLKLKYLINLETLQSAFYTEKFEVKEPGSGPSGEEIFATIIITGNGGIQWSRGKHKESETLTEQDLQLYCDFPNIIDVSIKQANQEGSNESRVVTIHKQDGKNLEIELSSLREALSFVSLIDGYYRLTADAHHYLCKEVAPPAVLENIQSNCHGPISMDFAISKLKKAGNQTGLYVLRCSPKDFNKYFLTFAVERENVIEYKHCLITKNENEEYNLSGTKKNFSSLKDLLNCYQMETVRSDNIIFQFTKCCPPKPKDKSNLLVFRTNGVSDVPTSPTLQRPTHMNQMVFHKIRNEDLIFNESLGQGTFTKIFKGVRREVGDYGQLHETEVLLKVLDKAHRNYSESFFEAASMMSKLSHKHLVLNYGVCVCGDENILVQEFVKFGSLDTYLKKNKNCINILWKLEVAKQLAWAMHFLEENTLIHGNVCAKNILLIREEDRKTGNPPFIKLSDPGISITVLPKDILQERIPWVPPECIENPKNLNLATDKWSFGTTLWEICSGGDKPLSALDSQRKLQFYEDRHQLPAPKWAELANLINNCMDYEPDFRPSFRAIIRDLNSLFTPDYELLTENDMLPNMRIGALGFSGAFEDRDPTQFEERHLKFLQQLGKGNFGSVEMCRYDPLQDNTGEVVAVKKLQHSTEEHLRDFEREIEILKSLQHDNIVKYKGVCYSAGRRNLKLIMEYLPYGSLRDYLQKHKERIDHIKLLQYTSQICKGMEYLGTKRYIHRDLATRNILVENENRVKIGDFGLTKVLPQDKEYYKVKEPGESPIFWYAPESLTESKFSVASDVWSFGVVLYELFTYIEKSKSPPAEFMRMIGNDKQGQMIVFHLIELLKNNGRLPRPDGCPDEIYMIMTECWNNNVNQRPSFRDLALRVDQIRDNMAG

Row | Compound | IC50 (JAK1) [nM] | JAK2/JAK1 (JAK1) | IC50 (JAK2) [nM] | IC50 (JAK3) [nM]
1 | CN(c1c(C#N)cnc2[nH]ccc12)[C@H]1C[C@@H]2CN(S(=O)(=O)CCC(F)(F)F)C[C@@H]2C1 [Compound H27] | 5.6 | 5.89 | 33 | 171
2 | CN(c1c(C#N)cnc2[nH]ccc12)[C@H]1C[C@@H]2CN(S(=O)(=O)c3cccc(F)c3)C[C@@H]2C1 [Compound H28] | 9.5 | 14.21 | 135 | 220
3 | CC[C@@H]1CC(NS(=O)(=O)c2cccc(C(F)(F)F)c2)C[C@@H]1Nc1c(C#N)cnc2[nH]ccc12 (stereo partly shown) [Compound H60, N-(3-((5-cyano-1H-pyrrolo[2,3-b]pyridin-4-yl)amino)-4-ethylcyclopentyl)-3-(trifluoromethyl)benzsulfamide] | 5.6 | 6.25 | 35 | 153
4 | CN1CCN(S(=O)(=O)C[C@H]2CC[C@H](N(C)c3c(C#N)cnc4[nH]ccc34)CC2)CC1 [Compound H63, Trans-4-(methyl((1r,4r)-4-(((4-methylpiperazin-1-yl)sulfonyl)methyl)cyclohexyl)amino)-1H-pyrrolo[2,3-b]pyridin-5-carbonitrile] | 1.42 | 5.14 | 7.3 | 64
5 | CNCC1CCN(S(=O)(=O)C[C@H]2CC[C@H](N(C)c3c(C#N)cnc4[nH]ccc34)CC2)C1 (stereo partly drawn) [Compound H67, 4-(methyl-(trans-4-(((3-((methylamino)methyl)pyrrolidin-1-yl)sulfonyl)methyl)cyclohexyl)amino)-1H-pyrrolo[2,3-b]pyridin-5-carbonitrile] | 0.67 | 14.18 | 9.5 | 76
6 | COCC1CCN(S(=O)(=O)C[C@H]2CC[C@H](N(C)c3c(C#N)cnc4[nH]ccc34)CC2)C1 (stereo partly drawn) [Compound H68, 4-((trans-4-(((3-(methoxymethyl)pyrrolidin-1-yl)sulfonyl)methyl)cyclohexyl)(methyl)amino)-1H-pyrrolo[2,3-b]pyridin-5-carbonitrile] | 6.87 | 17.76 | 122 | 386
7 | CN(c1c(C#N)cnc2[nH]ccc12)[C@H]1CC[C@H](CS(=O)(=O)N2CCC(CO)C2)CC1 (stereo partly drawn) [Compound H69, 4-((trans-4-(((3-(hydroxymethyl)pyrrolidin-1-yl)sulfonyl)methyl)cyclohexyl)(methyl)amino)-1H-pyrrolo[2,3-b]pyridin-5-carbonitrile] | 0.81 | 9.01 | 7.3 | 90
8 | CN(c1c(C#N)cnc2[nH]ccc12)[C@@H]1CC[C@H](CS(=O)(=O)N2CCC(CO)C2)C1 (stereo partly shown) [Compound H71] | 1.13 | 8.67 | 9.8 | 70
9 | N#Cc1cnc2[nH]ccc2c1N[C@H]1CN(C(=O)NCC(F)(F)F)CC12CC2 [Compound H72, (R)-7-((5-cyano-1H-pyrrolo[2,3-b]pyridin-4-yl)amino)-N-(2,2,2-trifluoroethyl)-5-azaspiro[2.4]heptane-5-carboxamide] | 10.3 | 2.82 | 29 | 75
10 | CCC1CN(C(=O)CC#N)CC1Nc1c(C#N)cnc2[nH]ccc12 (stereo not shown) [Compound H78, 4-((4-ethyl-1-(2-cyanoacetyl)pyrrolidin-3-yl)amino)-1H-pyrrolo[2,3-b]pyridin-5-carbonitrile] | 6 | 2.67 | 16 | 42

More lines, now with the values ahead:

Row | IC50 (JAK1) [nM] | JAK2/JAK1 (JAK1) | IC50 (JAK2) [nM] | IC50 (JAK3) [nM] | Compound
11 | 5 | 2.60 | 13 | 27 | CN(c1c(C#N)cnc2[nH]ccc12)[C@H]1C[C@@H]2CN(C(=O)Nc3nc(C4CC4)no3)C[C@@H]2C1 [Compound H32, (3aR,5s,6aS)-4-({2-[(3-cyclopropyl-1,2,4-oxadiazole-5-yl)carbamoyl]-hexahydrocyclopenta[c]pyrrole-5-yl}-methyl-amino)-1H-pyrrolo[2,3-b]pyridin-5-carbonitrile]
12 | 5.9 | 8.47 | 50 | 77 | CN(c1c(C#N)cnc2[nH]ccc12)[C@H]1C[C@@H]2CN(C(=O)Nc3nc(OCC(C)(C)O)ns3)C[C@@H]2C1 [Compound H45, (3aR,5s,6aS)-5-((5-cyano-1H-pyrrolo[2,3-b]pyridin-4-yl)(methyl)amino)-N-(3-(2-hydroxy-2-methyl-propoxy)-1,2,4-thiadiazole-5-yl)hexahydrocyclopentadiene[c]pyrrole-2(1H)-carboxamide]
13 | 1.13 | 8.67 | 9.8 | 68 | CCCS(=O)(=O)N[C@H]1C[C@@H](Nc2c(C#N)cnc3[nH]ccc23)C1 [Compound H46, (cis)-4-{[3-(propanesulfonamido)-cyclobutyl-1-yl]-amino}-1H-pyrrolo [2,3-b]pyridin-5-carbonitrile]
14 | 2.67 | 7.49 | 20 | 130 | CCOc1noc(NC(=O)N2C[C@H]3C[C@H](N(C)c4c(C#N)cnc5[nH]ccc45)C[C@H]3C2)n1 [Compound H47, (3aR,5s,6aS)-5-((5-cyano-1H-pyrrolo[2,3-b]pyridin-4-yl)(methyl)amino)-N-(3-ethoxy-1,2,4-oxadiazole-5-yl)hexahydrocyclopentadiene[c]pyrrole-2(1H)-carboxamide]
15 | 0.86 | 8.60 | 7.4 | 56 | CCOc1nc(NC(=O)N2C[C@H]3C[C@H](N(C)c4c(C#N)cnc5[nH]ccc45)C[C@H]3C2)no1 [Compound H48, (3aR,5s,6aS)-5-((5-cyano-1H-pyrrolo[2,3-b]pyridin-4-yl)(methyl)amino)-N-(5-ethoxy-1,2,4-oxadiazole-3-yl)hexahydrocyclopentadiene[c]pyrrole-2(1H)-carboxamide]
16 | 5.43 | 2.76 | 15 | 178 | N#Cc1cnc2[nH]ccc2c1N[C@H]1C[C@@H]2CN(C(=O)Nc3nc(C4CC4)ns3)C[C@@H]2C1 [Compound H49, (3aR,5s,6aS)-5-((5-cyano-1H-pyrrolo[2,3-b]pyridin-4-yl)amino)-N-(3-cyclopropyl-1,2,4-thiadiazole-5-yl)hexahydrocyclopentadiene[c]pyrrole-2(1H)-carboxamide]
17 | 6.89 | 4.49 | 30.9 | 101 | COCCOc1nsc(NC(=O)N2C[C@H]3C[C@H](N(C)c4c(C#N)cnc5[nH]ccc45)C[C@H]3C2)n1 [Compound H51, (3aR,5S,6aS)-5-((5-cyano-1H-pyrrolo[2,3-b]pyridin-4-yl)(methyl)amino)-N-(3-(2-methoxyethoxy)-1,2,4-thiadiazole-5-yl)hexahydrocyclopenta[c]pyrrole-2(1H)-carboxamide]
18 | 0.79 | 10.06 | 7.95 | 69 | COCCOc1nsc(NC(=O)N2C[C@H]3C[C@H](Nc4c(C#N)cnc5[nH]ccc45)C[C@H]3C2)n1 [Compound H52, (3aR,5S,6aS)-5-((5-cyano-1H-pyrrolo[2,3-b]pyridin-4-yl)amino)-N-(3-(2-methoxyethoxy)-1,2,4-thiadiazole-5-yl)hexahydrocyclopenta[c]pyrrole-2(1H)-carboxamide]
19 | 2.59 | 6.83 | 17.7 | 253 | CN(C)Cc1nsc(NC(=O)N2C[C@H]3C[C@H](Nc4c(C#N)cnc5[nH]ccc45)C[C@H]3C2)n1 [Compound H55, (3aR,5s,6aS)-5-((5-cyano-1H-pyrrole[2,3-b]pyridin-4-yl)amino)-N-(3-((dimethylamino)methyl)-1,2,4-thiadiazole-5-yl)hexahydrocyclopenta[c]pyrrole-2(1H)-carboxamide]
20 | 1.43 | 7.01 | 10 | 82 | COCc1nsc(NC(=O)N2C[C@H]3C[C@H](N(C)c4c(C#N)cnc5[nH]ccc45)C[C@H]3C2)n1 [Compound H56]
21 | 0.89 | 7.19 | 6.4 | 48 | COCc1nsc(NC(=O)N2C[C@H]3C[C@H](Nc4c(C#N)cnc5[nH]ccc45)C[C@H]3C2)n1 [Compound H57]
22 | 8.23 | 15.31 | 126 | 589 | CC[C@@H]1CC(NC(=O)Nc2nc(OC)ns2)C[C@@H]1Nc1c(C#N)cnc2[nH]ccc12 (stereo partly drawn) [Compound H61, 1-((3S,4R)-3-((5-cyano-1H-pyrrolo[2,3-b]pyridin-4-yl)amino)-4-ethylcyclopentyl)-3-(3-methoxy-1,2,4-thiadiazole-5-yl)urea]

Source: patent US12398141B2 (SHANGHAI SYNERGY PHARMACEUTICAL SCIENCES CO., LTD, priority 2019, dated 2025)
